Values quoted from earlier work as cited in patent publication US20210046029A1, “LEVODOPA AND CARBIDOPA INTESTINAL GEL AND METHODS OF USE” (AbbVie Inc., priority 2015, published 2021).

Biological target: T1, peripheral dopa decarboxylase (Homo sapiens, UniProt P20711)
T1 construct: host or cells: endogenous enzyme of peripheral tissues in vivo
T1 sequence (P20711 1-480): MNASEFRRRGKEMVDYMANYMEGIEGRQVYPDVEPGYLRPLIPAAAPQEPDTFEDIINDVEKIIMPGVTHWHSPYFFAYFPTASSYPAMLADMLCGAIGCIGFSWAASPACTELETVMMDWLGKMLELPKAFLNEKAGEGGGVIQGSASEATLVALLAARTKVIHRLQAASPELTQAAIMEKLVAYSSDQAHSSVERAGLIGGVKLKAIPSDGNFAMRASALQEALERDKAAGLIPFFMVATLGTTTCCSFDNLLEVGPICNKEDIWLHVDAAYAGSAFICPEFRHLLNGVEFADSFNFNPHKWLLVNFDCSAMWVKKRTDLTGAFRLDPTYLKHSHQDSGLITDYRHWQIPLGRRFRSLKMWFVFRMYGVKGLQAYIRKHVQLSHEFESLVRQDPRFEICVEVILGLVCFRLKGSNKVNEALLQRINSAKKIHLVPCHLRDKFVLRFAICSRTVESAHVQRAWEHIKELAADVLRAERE
Conditions: in vivo

Carbidopa dose that saturates peripheral dopa decarboxylase: 70-100 mg a day
SMILES: C[C@@](Cc1ccc(O)c(O)c1)(NN)C(=O)O [carbidopa, (2S)-3-(3,4-dihydroxy-phenyl)-2-hydrazino-2-methylpropanoic acid]
